Type in all cases: in vivo
For test [1], the system named is silverleaf whitefly (Bemisia tabaci). As to the kind of experiment: Foliar spray bioefficacy, first assay (3 applications). As to conditions: for # of Individuals per Leaf: Adults, 1st Appl. / # of Individuals per Leaf: Eggs, 1st Appl. / # of Individuals per Leaf: Nymphs, 1st Appl.: 7 days after first application; for # of Individuals per Leaf: Adults, 2nd Appl. / # of Individuals per Leaf: Eggs, 2nd Appl. / # of Individuals per Leaf: Nymphs, 2nd Appl.: 7 days after second application; for # of Individuals per Leaf: Adults, 3rd Appl. / # of Individuals per Leaf: Eggs, 3rd Appl. / # of Individuals per Leaf: Nymphs, 3rd Appl.: 8 days after third application. As for the experimental part:
A bioefficacy assay utilizing a foliar spray containing Spirotetramat and pyriproxyfen was conducted on the silverleaf whitefly (Bemisia tabaci) on tomatoes and bell peppers. […] Control was recorded 7 days after first application, 7 days after second application and 8 days after third application. Application rates and results of this assay can be found in Table 8, below.

Test [2] has the same test system. As to the kind of experiment: Foliar spray bioefficacy, second assay (2 applications). The following applies: recorded 8 days after second application. On the procedure:
A bioefficacy assay utilizing a foliar spray containing Spirotetramat and pyriproxyfen was conducted on the silverleaf whitefly (Bemisia tabaci) on tomatoes and bell peppers. […] Control was recorded 7 days after first application, 7 days after second application and 8 days after third application. Application rates and results of this assay can be found in Table 8, below. […] Control was recorded 8 days after second application. Application rates and results of this assay can be found in Table 9, below.

Test [3] has the same test system. As to the kind of experiment: Foliar spray bioefficacy, third assay (3 applications). The following applies: for # of Individuals per Leaf: Adults, 1st Appl. / # of Individuals per Leaf: Eggs, 1st Appl. / # of Individuals per Leaf: Nymphs, 1st Appl.: 7 days after first application; for # of Individuals per Leaf: Adults, 2nd Appl. / # of Individuals per Leaf: Eggs, 2nd Appl. / # of Individuals per Leaf: Nymphs, 2nd Appl.: 7 days after second application; for # of Individuals per Leaf: Adults, 3rd Appl. / # of Individuals per Leaf: Eggs, 3rd Appl. / # of Individuals per Leaf: Nymphs, 3rd Appl.: 8 days after third application. As for the experimental part: A bioefficacy assay utilizing a foliar spray containing Spirotetramat and pyriproxyfen was conducted on the silverleaf whitefly (Bemisia tabaci) on tomatoes and bell peppers. […] Control was recorded 7 days after first application, 7 days after second application and 8 days after third application. Application rates and results of this assay can be found in Table 8, below. […] Control was recorded 7 days after first application, 7 days after second application and 8 days after third application. Application rates and results of this assay can be found in Table 10, below.

For test [4], the system named is Asian citrus psyllid (Diaphorina citri). As to the kind of experiment: Foliar spray bioefficacy on Valencia oranges. As for the experimental part: A bioefficacy assay utilizing a foliar spray containing Spirotetramat and pyriproxyfen was conducted on the Asian citrus psyllid (Diaphorina citri) on Valencia oranges. Spirotetramat and pyriproxyfen were applied concurrently and separately as a foliar spray. Application rates and results of this assay can be found in Table 12, below.

The test system of test [5] is vine mealybug (Pseudococcus maritimus). The test is described as follows: Foliar spray bioefficacy on table grapes. The following applies: Spirotetramat 131 g/HA. As for the experimental part:
A bioefficacy assay utilizing a foliar spray containing Spirotetramat and pyriproxyfen was conducted on the vine mealybug (Pseudococcus maritimus) on table grapes. Spirotetramat and pyriproxyfen were applied concurrently as a foliar spray and spirotetramat was also applied individually. Application rates and results of this assay can be found in Table 11, below.

Turning to `CC(COc1ccc(Oc2ccccc2)cc1)Oc1ccccn1` (racemic) [Pyriproxyfen, 4-Phenoxyphenyl (R/S)-2-(2-pyridyloxy)propyl ether], in test [1] (Pyriproxyfen 75.3 g/HA), the “# of Individuals per Leaf: Adults, 1st Appl.” value came out at 0.5 per Leaf; the “# of Individuals per Leaf: Eggs, 1st Appl.” value worked out at 0.5 per Leaf; the “# of Individuals per Leaf: Nymphs, 1st Appl.” value was 0.5 per Leaf; the “# of Individuals per Leaf: Adults, 2nd Appl.” value came to 1.5 per Leaf. Besides, in test [1] (Pyriproxyfen 75.3 g/HA), the “# of Individuals per Leaf: Eggs, 2nd Appl.” value is 2.3 per Leaf; the “# of Individuals per Leaf: Nymphs, 2nd Appl.” value came out at 0.8 per Leaf; the “# of Individuals per Leaf: Adults, 3rd Appl.” value was found to be 1.0 per Leaf; the “# of Individuals per Leaf: Eggs, 3rd Appl.” value stood at 2.0 per Leaf. Besides, the “# of Individuals per Leaf: Nymphs, 3rd Appl.” value in test [1] (Pyriproxyfen 75.3 g/HA) came to 0.8 per Leaf. In addition, in test [2] (Pyriproxyfen 75.3 g/HA), the “# of Individuals per Leaf: Adults, 1st Appl.” value came out at 1.6 per Leaf; the “# of Individuals per Leaf: Eggs, 1st Appl.” value worked out at 27.4 per Leaf; the “# of Individuals per Leaf: Nymphs, 1st Appl.” value is 65.9 per Leaf. For the same compound, in test [3] (Pyriproxyfen 75.3 g/HA), the “# of Individuals per Leaf: Adults, 1st Appl.” value is 0.5 per Leaf; the “# of Individuals per Leaf: Eggs, 1st Appl.” value came out at 0.5 per Leaf; the “# of Individuals per Leaf: Nymphs, 1st Appl.” value is listed as 0.5 per Leaf; the “# of Individuals per Leaf: Adults, 2nd Appl.” value was 1.5 per Leaf. Further, in test [3] (Pyriproxyfen 75.3 g/HA), the “# of Individuals per Leaf: Eggs, 2nd Appl.” value is reported as 2.3 per Leaf; the “# of Individuals per Leaf: Nymphs, 2nd Appl.” value is 0.8 per Leaf; the “# of Individuals per Leaf: Adults, 3rd Appl.” value was found to be 1.0 per Leaf; the “# of Individuals per Leaf: Eggs, 3rd Appl.” value is on record as 2.0 per Leaf. In test [3] (Pyriproxyfen 75.3 g/HA), the “# of Individuals per Leaf: Nymphs, 3rd Appl.” value is 0.8 per Leaf. The “# of Nymphs” value in test [4] (Pyriproxyfen 127.9 g/HA) is on record as 14.1.

On to `CCOC(=O)OC1=C(c2cc(C)ccc2C)C(=O)N[C@]12CC[C@@H](OC)CC2` [Spirotetramat, cis-3-(2,5-dimethylphenyl)-8-methoxy-2-oxo-1-azaspiro[4.5]dec-3-en-4-ylethyl carbonate], for which, in test [1] (Spirotetramat 87.6 g/HA), the “# of Individuals per Leaf: Adults, 1st Appl.” value came out at 3.3 per Leaf; the “# of Individuals per Leaf: Eggs, 1st Appl.” value turned out to be 6.5 per Leaf; the “# of Individuals per Leaf: Nymphs, 1st Appl.” value is recorded as 17.8 per Leaf; the “# of Individuals per Leaf: Adults, 2nd Appl.” value is reported as 2.0 per Leaf. Moreover, in test [1] (Spirotetramat 87.6 g/HA), the “# of Individuals per Leaf: Eggs, 2nd Appl.” value was 13.8 per Leaf; the “# of Individuals per Leaf: Nymphs, 2nd Appl.” value amounted to 30.5 per Leaf; the “# of Individuals per Leaf: Adults, 3rd Appl.” value amounted to 2.0 per Leaf; the “# of Individuals per Leaf: Eggs, 3rd Appl.” value is given as 11.0 per Leaf. Further, the “# of Individuals per Leaf: Nymphs, 3rd Appl.” value in test [1] (Spirotetramat 87.6 g/HA) was found to be 16.8 per Leaf. Also, in test [2] (Spirotetramat 87.6 g/HA), the “# of Individuals per Leaf: Adults, 1st Appl.” value is 2.6 per Leaf; the “# of Individuals per Leaf: Eggs, 1st Appl.” value was found to be 12.7 per Leaf; the “# of Individuals per Leaf: Nymphs, 1st Appl.” value was 33.2 per Leaf. In test [3] (Spirotetramat 87.6 g/HA), the “# of Individuals per Leaf: Adults, 1st Appl.” value is on record as 3.3 per Leaf; the “# of Individuals per Leaf: Eggs, 1st Appl.” value is given as 6.5 per Leaf; the “# of Individuals per Leaf: Nymphs, 1st Appl.” value was 17.8 per Leaf; the “# of Individuals per Leaf: Adults, 2nd Appl.” value is given as 2.0 per Leaf. In test [3] (Spirotetramat 87.6 g/HA), the “# of Individuals per Leaf: Eggs, 2nd Appl.” value was 13.8 per Leaf; the “# of Individuals per Leaf: Nymphs, 2nd Appl.” value was 30.5 per Leaf; the “# of Individuals per Leaf: Adults, 3rd Appl.” value is reported as 2.0 per Leaf; the “# of Individuals per Leaf: Eggs, 3rd Appl.” value is listed as 11.0 per Leaf. The “# of Individuals per Leaf: Nymphs, 3rd Appl.” value in test [3] (Spirotetramat 87.6 g/HA) was found to be 16.8 per Leaf. The “% bunches infested” value in test [5] was 6.8%. The “# of Nymphs” value in test [4] (Spirotetramat 163.7 g/HA) came to 8.6.

The record behind these values is patent US11690379B2, “Aqueous insecticidal composition and methods of use thereof” (priority 2020, dated 2023).
